Laboratory results as given in ChEMBL document CHEMBL3046160, “Insecticidal Activities of the Enantiomers of Asymmetric 1-[1-(6-Chloro-3-pyridyl)ethyl]-2-nitroiminoimidazolidine against American Cockroach, Cucurbit Leaf Beetle, Green Rice Leafhopper and Green Peach Aphid Following Injection, Dipping and Spraying” (2004).

Assays:
Periplaneta americana [1] = experiment: Insecticidal activity against Periplaneta americana (American cockroach) compound administered through injection into abdomen; assay type: functional
Myzus persicae [2] = experiment: Insecticidal activity against Myzus persicae (green peach aphid) in two-leaf stage eggplant assessed as mortality at 1.6 ppm after 7 days; assay type: functional; conditions: 168 h
Nephotettix cincticeps [3] = experiment: Insecticidal activity against Nephotettix cincticeps (green rice leafhopper) in compound-sprayed rice plant assessed as mortality at 1.6 ppm after 2 to 7 days; assay type: functional
Aulacophora [4] = experiment: Insecticidal activity against second-instar larvae of Aulacophora femoralis (cucurbit leaf beetle) in compound-treated cucumber leaf assessed as mortality at 1.6 ppm after 2 to 7 days; assay type: functional
[5] = target: T1, Nicotinic acetylcholine receptor alpha 5 subunit (Musca domestica) (UniProt A9XFY4); experiment: Displacement of [3H]IMI from Musca domestica (house fly) head membrane nicotinic acetylcholine receptor
T1 sequence (whole entry): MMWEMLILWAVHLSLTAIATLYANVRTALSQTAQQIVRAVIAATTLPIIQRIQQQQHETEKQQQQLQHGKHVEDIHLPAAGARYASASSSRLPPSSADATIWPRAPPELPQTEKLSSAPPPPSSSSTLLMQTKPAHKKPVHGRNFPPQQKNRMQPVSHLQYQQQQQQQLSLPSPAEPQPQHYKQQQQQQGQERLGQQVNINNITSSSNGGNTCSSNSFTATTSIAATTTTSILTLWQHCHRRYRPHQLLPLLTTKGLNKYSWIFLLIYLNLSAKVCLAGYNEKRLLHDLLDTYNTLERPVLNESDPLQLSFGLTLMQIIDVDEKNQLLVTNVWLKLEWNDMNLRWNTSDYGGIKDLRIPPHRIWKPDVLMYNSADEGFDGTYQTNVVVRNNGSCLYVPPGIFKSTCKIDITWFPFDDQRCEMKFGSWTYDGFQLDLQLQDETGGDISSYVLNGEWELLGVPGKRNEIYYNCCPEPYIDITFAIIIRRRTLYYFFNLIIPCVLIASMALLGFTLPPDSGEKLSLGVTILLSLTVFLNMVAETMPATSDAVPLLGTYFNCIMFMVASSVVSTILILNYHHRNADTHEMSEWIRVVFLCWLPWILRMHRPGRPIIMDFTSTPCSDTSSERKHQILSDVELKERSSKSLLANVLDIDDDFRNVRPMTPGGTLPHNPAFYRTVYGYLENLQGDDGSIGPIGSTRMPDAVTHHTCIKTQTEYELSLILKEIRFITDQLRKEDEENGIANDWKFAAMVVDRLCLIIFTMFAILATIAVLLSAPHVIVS

Nephotettix cincticeps [6] = experiment: Insecticidal activity against Nephotettix cincticeps (green rice leafhopper) in compound-sprayed rice plant assessed as mortality at 8 ppm after 2 to 7 days; assay type: functional
Aulacophora [7] = experiment: Insecticidal activity against second-instar larvae of Aulacophora femoralis (cucurbit leaf beetle) in compound-treated cucumber leaf assessed as mortality at 8 ppm after 2 to 7 days; assay type: functional
Periplaneta americana [8] = experiment: Insecticidal activity against Periplaneta americana (American cockroach) compound administered through injection into abdomen in presence of piperonyl butoxide and NIA 16388; assay type: functional
Musca domestica [9] = experiment: Insecticidal activity against Musca domestica (house fly) compound administered through injection in presence of piperonyl butoxide and NIA 16388; assay type: functional
Musca domestica [10] = experiment: Insecticidal activity against Musca domestica (house fly) compound administered through injection; assay type: functional
Periplaneta americana [11] = experiment: Neuroblocking potency in Periplaneta americana (American cockroach) admoninal central nerve cod; assay type: functional
Myzus persicae [12] = experiment: Insecticidal activity against Myzus persicae (green peach aphid) in two-leaf stage eggplant assessed as mortality at 8 ppm after 7 days; assay type: functional; conditions: 168 h

Row | Structure (SMILES) | MLD (Periplaneta americana [1]) [nmol] | mortality at 1.6 ppm (Myzus persicae [2]) [%] | mortality at 1.6 ppm (Nephotettix cincticeps [3]) [%] | mortality at 1.6 ppm (Aulacophora [4]) [%] | Activity [5] [µM] | mortality at 8 ppm (Nephotettix cincticeps [6]) [%] | mortality at 8 ppm (Aulacophora [7]) [%] | MLD (Periplaneta americana [8]) [nmol] | MLD (Musca domestica [9]) [pmol] | MLD (Musca domestica [10]) [pmol] | Activity (Periplaneta americana [11]) [µM] | mortality at 8 ppm (Myzus persicae [12]) [%]
1 | C[C@H](c1ccc(Cl)nc1)N1CCN/C1=N\[N+](=O)[O-] [(R)-METHYL-IMIDACLOPRID] | 42 | 60 | 100 | 50 | 0.95 | 100 | 90 | 0.83 | 2.3 | 55 | 73 | 90
2 | CN1CCC[C@H]1c1cccnc1 [NICOTINE] | 490 | – | – | – | 11.9 | – | – | 310 | – | – | – | –
3 | C[C@@H](c1ccc(Cl)nc1)N1CCN/C1=N\[N+](=O)[O-] [(S)-METHYL-IMIDACLOPRID] | 30 | 40 | 90 | 100 | 0.19 | 100 | 100 | 0.93 | 1.1 | 45 | 5.9 | 60
4 | CN1CCC[C@@H]1c1cccnc1 [R-NICOTINE] | 320 | – | – | – | 422 | – | – | 160 | – | – | – | –
5 | O=[N+]([O-])/N=C1\NCCN1Cc1ccc(Cl)nc1 [IMIDACLOPRID] | 1.1 | 100 | 100 | 100 | 0.02 | 100 | 100 | 0.07 | 0.26 | 2.2 | 2.3 | 100
